Laboratory results from patent publication US4289776A, “Xanthine derivatives” (Hoechst Aktiengesellschaft, priority 1973, dated 1981).
≈ marks a conversion by molar mass, not a printed value.

What was measured:
Solubility = assay type: physicochemical
human blood = assay: Fibrinolytic effect in vitro, Hanging-Clot-test; assay type: biochemical
Procedure: This effect was measured by the Hanging-Clot-test according to K. N. von Kaulla ("Journ. med. Chem." vol. 8 (1965), page 164) in using human blood. The incubation time was 24 or 48 hours.

[1] = system: bronchospasm against acetylcholine; assay: Broncholytic effect at the narcotized guinea-pig, bronchospasm by acetylcholine; assay type: in vivo; settings: Cavia porcellus, iv, 2 min, 2 min. i.p.; for change in vivo at 3 mg/kg: 3 mg/kg i.v.; for change in vivo at 10 mg/kg: 10 mg/kg i.v.
Procedure: (§1) 2. Broncholytic effect at the narcotized guinea-pig
(§2) This test was performed according to H. Konsett and R. Rossler ("Archiv exp. Path. Pharmak." vol. 195 (1940), page 71).

[2] = system: bronchospasm against acrotonine; assay: Broncholytic effect at the narcotized guinea-pig, bronchospasm by acrotonine (so in the source); assay type: in vivo; settings: 2 min. i.p.
Procedure: as §1, §2

[3] = Toxicity in the mouse (LD50); settings: in vivo, ip, read-out: Toxicity (LD50-range or LD50)
Procedure: The toxicity was determined as LD50 --range or as LD50 according to Litchfield and Wilcoxon ("J. Pharmacol. exp. Ther." 97 (1949), page 399) in the mouse.

[4] = system: bronchospasm against histamine; assay: Broncholytic effect at the narcotized guinea-pig, bronchospasm by histamine; assay type: in vivo; settings: for change in vivo at 3 mg/kg: 3 mg/kg i.v.; for change in vivo at 10 mg/kg: 10 mg/kg i.v.; for Broncholytic effect against histamine compared with sample 8: guinea pig, in vivo
Procedure: as §1, §2

cerebral blood perfusion = assay: Cerebral blood perfusion by fluvography at the cat (i.v.); assay type: in vivo
Procedure: (§3) Animal tests were carried out with various oxoalkylxanthine derivatives, in which the toxicity in the mouse, the increase of cerebral and muscular blood perfusion at the cat and the fibrinolytic effect in vitro in the Hanging-Clot-test were measured. Furthermore the broncholytic effect of various compounds was tested.
(§4) 1. Cerebral and muscular blood perfusion by fluvography
(§5) These tests were performed at the cat according to K. Popendiker, I. Boksay and V. Bollmann ("Arzneimittel Forschung" vol. 21 (1971), page 1160).
(§6) The values obtained in the mentioned test 1 are given as Δλ and as half-life values in Table 2 and the results of tests 2 to 5 are enumerated in Table 3. In Table 2 Δλ is the change of blood perfusion.

muscular blood perfusion = assay: Muscular blood perfusion by fluvography at the cat (i.v.); assay type: in vivo
Procedure: as §3, §4, §5, §6

[5] = human blood, 24 hours incubation
[6] = human blood, 48 hours incubation (bracket)
[7] = 10 mg/kg i.v., sample in propanediol, sample 1: Longtime effect (footnote 1)
[8] = Cavia porcellus, iv, 2 min, 2 min. i.p., sample in propanediol
[9] = Cavia porcellus, iv, 2 min, 2 min. i.p.
[10] = 2 mg/kg i.v. vs sample 8 at 5 mg/kg

Structure (SMILES) | Solubility in dimethyl sulphoxide (Solubility) | Solubility in dimethylformamide (Solubility) | Solubility in ethanol (Solubility) | LD50 [3] | Cerebral blood perfusion half-life (cerebral blood perfusion; 1 mg/kg i.v.) | Cerebral blood perfusion Δλ (change of blood perfusion) (cerebral blood perfusion; 1 mg/kg i.v.) | Cerebral blood perfusion half-life (cerebral blood perfusion; 5 mg/kg i.v.) | Cerebral blood perfusion relative to comparison sample 8 (cerebral blood perfusion; 5 mg/kg i.v.) | Cerebral blood perfusion Δλ (change of blood perfusion) (cerebral blood perfusion; 5 mg/kg i.v.) | change in vivo at 10 mg/kg [1] | Change of the bronchospasm in % against acrotonine ([2]; 3 mg/kg i.v.) | Change of the bronchospasm in % against acrotonine ([2]; 10 mg/kg i.v.) | Muscular blood perfusion Δλ (change of blood perfusion) (muscular blood perfusion; 1 mg/kg i.v.) | Muscular blood perfusion Δλ (change of blood perfusion) (muscular blood perfusion; 5 mg/kg i.v.) | change in vivo at 3 mg/kg [4, 9] | change in vivo at 10 mg/kg [4, 9] | Cerebral blood perfusion half-life (cerebral blood perfusion; 2 mg/kg i.v.) | Cerebral blood perfusion Δλ (change of blood perfusion) (cerebral blood perfusion; 2 mg/kg i.v.) | Muscular blood perfusion Δλ (change of blood perfusion) (muscular blood perfusion; 2 mg/kg i.v.) | further results
CCCCCCn1cnc2c1c(=O)n(CCCCC(C)=O)c(=O)n2C [Example 2, 1-(5-Oxohexyl)-3-methyl-7-n-hexyl-xanthine] | over 10% | over 10% | over 10% | – | – | – | – | – | – | – | – | – | – | – | – | – | – | – | – | Solubility in water (in words) (Solubility): only sparingly soluble in water
CC(=O)CCCCn1c(=O)c2c(ncn2CC(C)C)n(C)c1=O [Example 3, 1-(5-oxohexyl)-3-methyl7-isobutyl-xanthine] | over 10% | over 10% | over 10% | – | – | – | – | – | – | – | – | – | – | – | – | – | – | – | – | –
CCCn1c(=O)c2c(ncn2CCCCC(C)=O)n(C)c1=O [Sample 1, 1-n-Propyl-3-methyl-7-(5-oxohexyl)-xanthine] | over 10% | over 10% | over 10% | 100 to 250 mg/kg | – | – | – | – | – | – | – | – | – | – | – | – | – | – | – | Fibrinolytic effect relative to comparison sample 8 (human blood): two times as strong; Minimum concentration for partial lysis (human blood; [5]): 40 mmol; Minimum concentration for complete lysis (human blood; [6]): 20 mmol; change in vivo at 3 mg/kg ([1]; sample in propanediol): -33%; change in vivo at 10 mg/kg ([1]; sample in propanediol): -55%; Change of the bronchospasm in % against acrotonine ([2]; 3 mg/kg i.v., sample in propanediol): -40%; Change of the bronchospasm in % against acrotonine [2, 7]: -82%; change in vivo at 3 mg/kg [4, 8]: -63%; change in vivo at 10 mg/kg [4, 8]: -73%
CC(=O)CCCCn1cnc2c1c(=O)n(CC(C)C)c(=O)n2C [Sample 2, 1-isobutyl-3-methyl-7-(5-oxohexyl)-xanthine] | – | – | – | 250 to 500 mg/kg | 1.0 min | +1.85 | 14.3 min | about four times stronger | +3.45 | -29% | -20% | -47% | 0 | +0.05 | -80% | -73% | – | – | – | Half-life (cerebral) relative to comparison sample 8 (cerebral blood perfusion; 5 mg/kg i.v.): more than five times longer; Cerebral blood perfusion compared with sample 8 (in words) (cerebral blood perfusion; i.v.): stronger and longer cerebral blood perfusion; Muscular blood perfusion half-life (muscular blood perfusion; 5 mg/kg i.v.): 0.60 min
CCCCCCn1c(=O)c2c(ncn2CCCCC(C)=O)n(C)c1=O [Sample 3, I-(n-hexyl)-3-methyl-7-(5-oxohexyl)-xanthine] | – | – | – | 250 to 500 mg/kg | 0.4 min | +0.97 | – | – | – | -85% | -50% | -100% | -0.05 | – | -52% | -90% | 7.0 min | +1.45 | 0 | Cerebral blood perfusion relative to comparison sample 8 (cerebral blood perfusion; [10]): about two times as strong; Half-life (cerebral) relative to comparison sample 8 (cerebral blood perfusion; [10]): about three times as long; Muscular blood perfusion half-life (muscular blood perfusion; 1 mg/kg i.v.): 3.30 min; Broncholytic effect against histamine compared with sample 8 [4]: improved broncholytic effect against histamine
CCCCn1cnc2c1c(=O)n(CCCCC(C)=O)c(=O)n2C [Sample 5, 1-(5-Oxohexyl)-3-methyl-7-(n-butyl)-xanthine] | – | – | – | 250 to 500 mg/kg | 1.3 min | +2.50 | 3.0 min | about three times higher | +2.40 | -100% | – | -100% | 0 | 0 | – | -69% | 1.3 min | +2.55 | 0 | Cerebral blood perfusion relative to comparison sample 8 (cerebral blood perfusion; 1 mg/kg i.v.): nearly six times higher; change in vivo at 5 mg/kg ([1]; 5 mg/kg i.v.): -100%; Change of the bronchospasm in % against acrotonine ([2]; 5 mg/kg i.v.): -70%; change in vivo at 5 mg/kg ([4]; Cavia porcellus, iv, 2 min, 5 mg/kg i.v., 2 min. i.p.): -42%
CCCCCCCCCCn1cnc2c1c(=O)n(CCCCC(C)=O)c(=O)n2C [Sample 6, 1-(5-oxohexyl)-3-methyl-7-(n-decyl)-xanthine] | – | – | – | 500 mg/kg | 0.2 min | +1.40 | – | – | – | – | – | – | 0 | – | – | – | – | – | – | Cerebral blood perfusion half-life (cerebral blood perfusion; 3 mg/kg i.v.): 0.5 min; Cerebral blood perfusion Δλ (change of blood perfusion) (cerebral blood perfusion; 3 mg/kg i.v.): +2.8; change in vivo at 10 mg/kg ([1]; sample in propanediol): -50%; Change of the bronchospasm in % against acrotonine [2, 7]: -50%; Muscular blood perfusion half-life (muscular blood perfusion; 3 mg/kg i.v.): 4.00 min; Muscular blood perfusion Δλ (change of blood perfusion) (muscular blood perfusion; 3 mg/kg i.v.): +0.30; change in vivo at 10 mg/kg [4, 8]: -40%
CCn1cnc2c1c(=O)n(CCCCC(C)=O)c(=O)n2C [Sample 7, 1-(5-oxohexyl)-3-methyl-7-ethyl-xanthine] | – | – | – | 250 to 500 mg/kg | 1.5 min | +2.46 | 8.2 min | about nine times higher | +8.07 | -96% | -42% | -81% | +0.22 | +0.20 | -47% | -90% | 5.0 min | +5.17 | +0.10 | solubility (Solubility; water, 25° C.): ~20 mg/mL (≈ 68.4 mM); Cerebral blood perfusion relative to comparison sample 8 (cerebral blood perfusion; 1 mg/kg i.v.): about five times higher; Half-life (cerebral) relative to comparison sample 8 (cerebral blood perfusion; 1 mg/kg i.v.): 1.5 times; Half-life (cerebral) relative to comparison sample 8 (cerebral blood perfusion; 5 mg/kg i.v.): more than three times longer; Fibrinolytic effect relative to comparison sample 8 (human blood): two times as strong; Minimum concentration for partial lysis (human blood; [5]): 50 mmol; Minimum concentration for partial lysis (human blood; [6]): 25 mmol; change in vivo at 3 mg/kg [1]: -28%; Muscular blood perfusion half-life (muscular blood perfusion; 1 mg/kg i.v.): 0.40 min; Muscular blood perfusion half-life (muscular blood perfusion; 2 mg/kg i.v.): 5.00 min; Muscular blood perfusion half-life (muscular blood perfusion; 5 mg/kg i.v.): 0.50 min; Broncholytic effect against histamine compared with sample 8 [4]: improved broncholytic effect against histamine
